Results published in patent CN109134447A, “一种富马酸卢帕替芬的杂质b及其制备方法和检测方法” (FUJIAN MINDONG REJUVENATION PHARMACEUTICAL Co Ltd, priority 2018, dated 2019).

Assay: Stability test of the reference solution of the compound of formula I (HPLC peak area)
Format: physicochemical
Details: reference solution in 50% aqueous methanol (25 mg in 25 ml); injected at 0, 2, 4, 8, 12, 24 h after preparation, 20 μl each; within 24 hours

stability (peak area by HPLC): 稳定
Structure (SMILES): Cc1cncc(C[N+]2(C)CCC(=C3c4ccccc4CC(=O)c4sccc43)CC2)c1.[Br-] (stereo not shown) [式Ⅰ所示化合物]
